Key:
Test in all cases: MIC, microdilution, clinical strains
Format in all cases: cell-based
[1] = tested on: clinical strains of Acinetobacter baumannii; design: unit: μg/ml; details: 0.02% BSA, 0.2% acetic acid
Method: (§1) Minimum inhibition concetrations (MICs) were determined against Escherichia coli (ATCC 25922), Staphylococcus aureus (ATCC 25923), Klebsiella pneumoniae (ATCC 10031) and Pseudomonas aeruginosa (ATCC 27853). Also clinical strains of E. coli, K. pneumoniae, E. cloacae, P. aeruginosa, Serratia marcescens, Proteus mirabilis, S. pneumoniae, Acinetobacter baumannii, A. johnsonii and S. aureus were used for MICs assays. Additionally, clinical strains of yeast including Candida albicans, C. glabrata, C. parapsilosis and C. quillermondiae were used. The susceptibility of these microorganisms to Chain peptides were determined using micro broth dilution assay. Colonies of the respective microorganism from Muller Hinton (MH) agar plates incubated overnight were suspended in MH broth media and final concentration of microorganism was adjusted to 5.0×10^5 cfu/ml. An aliquot of 10 μl of each Chain peptide, or gentamicin, tetracycline as reference antibiotics were added in differing concentrations along with 90 μl of bacterial suspension to 96 well polypropylene plates and incubated at 37° C. for 20 to 24 hours. Concentrations of Chain peptides and reference antibiotics ranged from 0.125 to 128 μg/ml and the MICs were recorded as the lowest concentration with no visual growth of bacteria. Similarly, antifungal MICs were tested in Potato dextrose broth.
(§2) Clinical strains of yeasts including Candida albicans, C. glabrata, C. parapsilosis and C. quillermondiae were also tested with the 12 Chain peptides. The minimum inhibitory concentration (MICs) varied between these peptides and are presented in Tables 4a, 4b, 4c and 5a, 5b, 5c. Peptides Chain 105, 201 and 308 are broad spectrum antimicrobials with MICs between 0.5-32 μg/ml against all the bacteria and yeasts tested, except Serratia marcescens and Proteus mirabilis, against which the MICs were between 64-128 μg/ml. Peptide Chain 306 has narrow spectrum activity against E. coli at 1 μg/ml and for the rest of the bacterial strains at >32 μg/ml (FIG. 10c).

[2] = tested on: clinical strains of A. johnsonii; design: unit: μg/ml; details: Acinetobacter johnsonii strain 1, Muller Hinton broth-cation adjusted, 0.02% BSA, 0.2% acetic acid
Method: as §1, §2

[3] = tested on: clinical strains of E. coli; details: microdilution, Muller Hinton broth-cation adjusted, 0.02% BSA, 0.2% acetic acid
Procedure, shortened: (§3)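 Broth microdilution with inocula adjusted to 5.0×10^5 cfu/ml; peptides tested at 0.125 to 128 μg/ml and incubated at 37° C for 20 to 24 hours. Bacteria were grown in Mueller Hinton broth, yeasts in potato dextrose broth. MIC was the lowest concentration showing no visible growth.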

[4] = tested on: clinical strains of Serratia marcescens; details: 0.02% BSA, 0.2% acetic acid
Procedure, shortened: as §3

[5] = tested on: clinical strains of S. aureus; details: 0.02% BSA, 0.2% acetic acid
Procedure, shortened: as §3

[6] = tested on: clinical strains of S. pneumoniae; details: 0.02% BSA, 0.2% acetic acid
Procedure, shortened: as §3

[7] = tested on: clinical strains of Proteus mirabilis; details: 0.02% BSA, 0.2% acetic acid
Procedure, shortened: as §3

[8] = tested on: clinical strains of P. aeruginosa; details: 0.02% BSA, 0.2% acetic acid
Procedure, shortened: as §3

[9] = tested on: clinical strains of K. pneumoniae; details: 0.02% BSA, 0.2% acetic acid
Procedure, shortened: as §3

[10] = tested on: clinical strains of E. cloacae; details: 0.02% BSA, 0.2% acetic acid
Procedure, shortened: as §3

Gentamicin [reference compound]
Minimum inhibitory concentration ([1]; Acinetobacter baumannii strain 1, Muller Hinton broth-cation adjusted): 0.5 | Minimum inhibitory concentration ([1]; Acinetobacter baumannii strain 2, Muller Hinton broth-cation adjusted): 0.25 | Minimum inhibitory concentration ([1]; Acinetobacter baumannii strain 3, Muller Hinton broth-cation adjusted): 0.5 | Minimum inhibitory concentration ([1]; Acinetobacter baumannii strain 4, Muller Hinton broth-cation adjusted): 0.5 | Minimum inhibitory concentration ([1]; Acinetobacter baumannii strain 5, Muller Hinton broth-cation adjusted): 0.25 | Minimum inhibitory concentration [2]: 0.25 | Minimum inhibitory concentration ([3]; Escherichia coli strain 1): 0.5 | Minimum inhibitory concentration ([3]; Escherichia coli strain 2): 0.5 | Minimum inhibitory concentration ([3]; Escherichia coli strain 3): 1 | Minimum inhibitory concentration ([3]; Escherichia coli strain 4): 1 | Minimum inhibitory concentration ([3]; Escherichia coli strain 5): 1 | Minimum inhibitory concentration ([4]; Serratia marcescens strain 1, Muller Hinton broth-cation adjusted): 1 | Minimum inhibitory concentration ([4]; Serratia marcescens strain 2, Muller Hinton broth-cation adjusted): 2 | Minimum inhibitory concentration ([4]; Serratia marcescens strain 3, Muller Hinton broth-cation adjusted): 1 | Minimum inhibitory concentration ([4]; Serratia marcescens strain 4, Muller Hinton broth-cation adjusted): 1 | Minimum inhibitory concentration ([4]; Serratia marcescens strain 5, Muller Hinton broth-cation adjusted): 1 | Minimum inhibitory concentration ([5]; Staphylococcus aureus strain 1, Muller Hinton broth-cation adjusted): 0.5 | Minimum inhibitory concentration ([5]; Staphylococcus aureus strain 2, Muller Hinton broth-cation adjusted): 0.5 | Minimum inhibitory concentration ([5]; Staphylococcus aureus strain 3, Muller Hinton broth-cation adjusted): 0.5 | Minimum inhibitory concentration ([5]; Staphylococcus aureus strain 4, Muller Hinton broth-cation adjusted): 0.5 | Minimum inhibitory concentration ([5]; Staphylococcus aureus strain 5, Muller Hinton broth-cation adjusted): 0.5 | Minimum inhibitory concentration ([6]; Streptococcus pneumoniae strain 1, Muller Hinton broth-cation adjusted): 2 | Minimum inhibitory concentration ([6]; Streptococcus pneumoniae strain 2, Muller Hinton broth-cation adjusted): 2 | Minimum inhibitory concentration ([6]; Streptococcus pneumoniae strain 3, Muller Hinton broth-cation adjusted): 2 | Minimum inhibitory concentration ([6]; Streptococcus pneumoniae strain 4, Muller Hinton broth-cation adjusted): 2 | Minimum inhibitory concentration ([6]; Streptococcus pneumoniae strain 5, Muller Hinton broth-cation adjusted): 1 | Minimum inhibitory concentration ([7]; Proteus mirabilis strain 1, Muller Hinton broth-cation adjusted): 2 | Minimum inhibitory concentration ([7]; Proteus mirabilis strain 2, Muller Hinton broth-cation adjusted): 2 | Minimum inhibitory concentration ([7]; Proteus mirabilis strain 3, Muller Hinton broth-cation adjusted): >128 | Minimum inhibitory concentration ([7]; Proteus mirabilis strain 4, Muller Hinton broth-cation adjusted): 8 | Minimum inhibitory concentration ([7]; Proteus mirabilis strain 5, Muller Hinton broth-cation adjusted): >128 | Minimum inhibitory concentration ([8]; Pseudomonas aeruginosa strain 1, Muller Hinton broth-cation adjusted): 1 | Minimum inhibitory concentration ([8]; Pseudomonas aeruginosa strain 2, Muller Hinton broth-cation adjusted): 0.5 | Minimum inhibitory concentration ([8]; Pseudomonas aeruginosa strain 3, Muller Hinton broth-cation adjusted): 0.5 | Minimum inhibitory concentration ([8]; Pseudomonas aeruginosa strain 4, Muller Hinton broth-cation adjusted): 0.5 | Minimum inhibitory concentration ([8]; Pseudomonas aeruginosa strain 5, Muller Hinton broth-cation adjusted): 0.25 | Minimum inhibitory concentration ([9]; Klebsiella pneumoniae strain 1, Muller Hinton broth-cation adjusted): 2 | Minimum inhibitory concentration ([9]; Klebsiella pneumoniae strain 2, Muller Hinton broth-cation adjusted): 0.25 | Minimum inhibitory concentration ([9]; Klebsiella pneumoniae strain 3, Muller Hinton broth-cation adjusted): 2 | Minimum inhibitory concentration ([9]; Klebsiella pneumoniae strain 4, Muller Hinton broth-cation adjusted): 2 | Minimum inhibitory concentration ([9]; Klebsiella pneumoniae strain 5, Muller Hinton broth-cation adjusted): 4 | Minimum inhibitory concentration ([10]; Enterobacter cloacae strain 1, Muller Hinton broth-cation adjusted): 0.25 | Minimum inhibitory concentration ([10]; Enterobacter cloacae strain 2, Muller Hinton broth-cation adjusted): 0.25 | Minimum inhibitory concentration ([10]; Enterobacter cloacae strain 3, Muller Hinton broth-cation adjusted): 0.25 | Minimum inhibitory concentration ([10]; Enterobacter cloacae strain 4, Muller Hinton broth-cation adjusted): 0.25 | Minimum inhibitory concentration ([10]; Enterobacter cloacae strain 5, Muller Hinton broth-cation adjusted): 0.25

From patent US10457710B2, “Antimicrobial peptides, their variants and uses” (priority 2015, dated 2019)
